Measurements as given in paper PMC6112376, “Comprehensive Analyses and Prioritization of Tox21 10K Chemicals Affecting Mitochondrial Function by in-Depth Mechanistic Studies” (Environmental Health Perspectives, 2018).
Read-outs that look alike come from different tables or passages of the source.

Columns and labels:
HepG2 cells [1] = conditions: cited from earlier work
rat primary hepatocytes [2] = test system: rat primary hepatocytes
HepG2 cells [3] = assay: cells; conditions: Homo sapiens; for IC50: HepG2, read-out: MMP assays IC50 (µM) HepG2; for Emax: HepG2, read-out: MMP assays efficacy (%) HepG2
rat primary hepatocytes [4] = assay: MMP assay in rat primary hepatocytes; conditions: for IC50: Rattus norvegicus, Hepatocyte, read-out: MMP assays IC50 (µM) Rat Hepatocytes
[5] = read-out: MMP assays IC50 (µM), qHTS-HepG2
[6] = read-out: MMP assays IC50 (µM) qHTS-HepG2

Row | SMILES | MMP assays efficacy (%) qHTS-HepG2 (HepG2 cells [1]) | IC50 (HepG2 cells [1]; [5]) | MMP assays efficacy (%) Rat Hepatocytes (rat primary hepatocytes [2]) | IC50 (HepG2 cells [3]) | Emax (HepG2 cells [3]) | IC50 (rat primary hepatocytes [4]) | IC50 (HepG2 cells [1]; [6]) | MMP assays IC50 (µM) Rat Hepatocytes (rat primary hepatocytes [4]) | MMP assays IC50 (µM) qHTS-HepG2 (HepG2 cells [1])
1 | Oc1cc(Cl)ccc1Oc1ccc(Cl)cc1Cl [Triclosan] | -101±5% | 1.5 ± 0.88 µM | -58±19% | 6.15 µM | 123% | 15.2 ± 13.5 µM | – | – | –
2 | Oc1c(Cl)cc(Cl)cc1Sc1cc(Cl)cc(Cl)c1O [Bithionol] | -97±9% | – | -109±25% | 0.97 µM | 92% | 2.47 ± 1.39 µM | 0.66 ± 0.52 µM | – | –
3 | CC(C)CC(=O)C1C(=O)c2ccccc2C1=O [2-Isovaleryl-1,3-indanedione] | -99±5% | – | -107±61% | 56.2 µM | 108% | 22.2 ± 11.1 µM | 5.24 ± 0.9 µM | – | –
4 | CCC(C)(C)c1cc(O)c(C(C)(C)CC)cc1O | -121±19% | – | -87±19% | 3.55 µM | 101% | 34.5 ± 5.88 µM | 6.86 ± 3.17 µM | – | –
5 | CN1C(C(=O)Nc2ccccn2)=C(O)c2ccccc2S1(=O)=O [Piroxicam] | -109±18% | 8.21 ± 1.71 µM | -84±3% | 5.88 µM | 103% | 4.79 ± 1.53 µM | – | – | –
6 | Cc1cc(C(C)(C)c2ccc(O)c(C)c2)ccc1O [3,3'-Dimethylbisphenol A] | -118±22% | – | -56±26% | 11.2 µM | 110% | 34.4 ± 4.73 µM | 8.88 ± 3.37 µM | – | –
7 | C#C[C@]1(O)CC[C@H]2[C@@H]3CCC4=CCCC[C@@H]4[C@H]3C(=C)C[C@@]21CC [Desogestrel] | -125±21% | – | inactive | 27.5 µM | 84% | – | 22.3 ± 2.11 µM | inactive | –
8 | O=C1C2(Cl)C3(Cl)C4(Cl)C(Cl)(Cl)C5(Cl)C3(Cl)C1(Cl)C5(Cl)C24Cl (stereo not drawn) [Kepone] | -101±8% | 0.93 ± 0.65 µM | -107±26% | 2.82 µM | 99% | 10.2 ± 9.25 µM | – | – | –
9 | ClC(Cl)=C(c1ccc(Cl)cc1)c1ccc(Cl)cc1 [p,p'-DDE] | -96±25% | 25.6 ± 1.71 µM | inactive | 44.7 µM | 105% | – | – | inactive | –
10 | COC(=O)Nc1cccc(OC(=O)Nc2cccc(C)c2)c1 [Phenmedipham] | -101±10% | 4.41 ± 2.02 µM | -95±20% | 7.08 µM | 107% | 19.4 ± 9.11 µM | – | – | –
11 | Oc1cc(Cl)cc(Cl)c1 [3,5-Dichlorophenol] | -96±8% | – | -81±35% | 11.2 µM | 113% | 46.9 ± 8.44 µM | 9.79 µM | – | –
12 | CCCOC(=O)c1ccc(O)cc1 [Propylparaben] | -99±4% | 38.6 ± 1.67 µM | inactive | 35.5 µM | 91% | – | – | inactive | –
13 | N=C(N)NN=C1C=CC(=NNC(N)=S)C=C1 [Ambazone] | -98±7% | – | -52±11% | 3.98 µM | 61% | 1.98 ± 2.22 µM | 5.6 ± 3.23 µM | – | –
14 | CCc1ccccc1O [Compound 2-Ethylphenol] | inactive | – | inactive | 15.8 µM | 72% | – | – | inactive | inactive
15 | Nc1ccc2cc3ccccc3cc2c1 [Compound 2-Aminoanthracene] | -72±12% | – | -51±35% | 3.55 µM | 73% | 0.18 ± 0.2 µM | 4.71 ± 1.92 µM | – | –
16 | CCC(=O)c1c(O)cc(O)cc1O [Flopropione] | -111±23% | 18.8 ± 6.83 µM | inactive | 17.3 µM | 103% | – | – | inactive | –
17 | Oc1ccc(Cl)cc1Sc1cc(Cl)ccc1O [Fenticlor] | -107±14% | 2.15 ± 0.36 µM | -88±15% | 5.48 µM | 101% | 13.9 ± 8.84 µM | – | – | –

Row | SMILES | MMP assays efficacy (%) qHTS-HepG2 (HepG2 cells [1]) | IC50 (HepG2 cells [1]; [5]) | MMP assays efficacy (%) Rat Hepatocytes (rat primary hepatocytes [2]) | IC50 (HepG2 cells [3]) | Emax (HepG2 cells [3]) | IC50 (rat primary hepatocytes [4]) | IC50 (HepG2 cells [1]; [6]) | MMP assays IC50 (µM) Rat Hepatocytes (rat primary hepatocytes [4]) | MMP assays IC50 (µM) qHTS-HepG2 (HepG2 cells [1])
18 | O=c1[nH]sc2ccccc12 [1,2-Benzisothiazolin-3-one] | -81±19% | – | inactive | 17.8 µM | 118% | – | 38.6 ± 13.7 µM | inactive | –
19 | O=C(Nc1ccccc1)Nc1ccnc(Cl)c1 [Forchlorfenuron] | -112±3% | 0.45 ± 0.13 µM | -108±37% | 1 µM | 104% | 2.19 ± 1.97 µM | – | – | –
20 | Clc1ccc(C(c2ccccc2Cl)C(Cl)Cl)cc1 (stereo not drawn) [o,p'-DDD] | -112±11% | 19.8 ± 0.94 µM | -45±27% | 19.4 µM | 151% | 24.2 ± 14.7 µM | – | – | –
21 | C#C[C@]1(O)CC[C@H]2[C@@H]3CCc4cc(O)ccc4[C@H]3CC[C@@]21C [Compound 17alpha-Ethinylestradiol] | -95±9% | – | -42±1% | 15.5 µM | 107% | 18.4 ± 1.5 µM | 19.1 ± 5.99 µM | – | –
22 | CCCSc1ccc2nc(NC(=O)OC)[nH]c2c1 [Albendazole] | -78±15% | – | -85±78% | 19.4 µM | 107% | 15.5 ± 21.7 µM | 9.35 ± 1.83 µM | – | –
23 | Cc1cccc(N)c1N [3-Methylbenzene-1,2-diamine] | -67±14% | – | -56±11% | 28.2 µM | 90% | 36.6 ± 11.8 µM | 21.7 ± 3.65 µM | – | –
24 | C[C@@H]1O[C@@H](O[C@@H]2C=C3CC[C@@H]4[C@H](CC[C@]5(C)[C@@H](c6ccc(=O)oc6)CC[C@]45O)[C@@]3(C)CC2)[C@H](O)[C@H](O)[C@H]1O [Proscillaridin] | -72±4% | 0.09 ± 0.02 µM | inactive | 0.066 µM | 86% | – | – | inactive | –
25 | CC(=O)O[C@H]1C[C@H](O[C@H]2[C@@H](O)C[C@H](O[C@H]3[C@@H](O)C[C@H](O[C@H]4CC[C@@]5(C)[C@H](CC[C@@H]6[C@@H]5C[C@@H](O)[C@]5(C)[C@@H](C7=CC(=O)OC7)CC[C@]65O)C4)O[C@@H]3C)O[C@@H]2C)O[C@H](C)[C@H]1O[C@@H]1O[C@H](CO)[C@@H](O)[C@H](O)[C@H]1O [Lanatoside C] | -51±10% | 0.78 ± 0.14 µM | inactive | 0.31 µM | 92% | – | – | inactive | –
26 | O=[N+]([O-])c1ccc2ccc3cccc4ccc1c2c34 [Compound 1-Nitropyrene] | -99±6% | – | -60±24% | 6.31 µM | 68% | 16.9 ± 4.77 µM | 2.01 ± 2.06 µM | – | –
27 | c1ccc(-c2cccc(-c3ccccc3)c2)cc1 [1,1':3',1''-Terphenyl] | -80±13% | – | -53±28% | 50.1 µM | 90% | 29.6 ± 27.7 µM | 47.9 ± 14.3 µM | – | –
28 | IC(I)=C(I)I [Tetraiodoethene] | -105±22% | 5.45 ± 1.27 µM | -115±28% | 6.31 µM | 103% | 22.6 ± 14.4 µM | – | – | –
29 | COC(=O)[C@]12CCC(C)(C)C[C@H]1[C@H]1C(=O)C=C3[C@@]4(C)C=C(C#N)C(=O)C(C)(C)[C@@H]4CC[C@@]3(C)[C@]1(C)CC2 [Bardoxolone methyl] | -114±5% | – | -90±57% | 17.3 µM | 122% | 17.4 ± 2 µM | 5.11 ± 1.27 µM | – | –
30 | CC(C)[C@H](C(=O)OC(C#N)c1cccc(Oc2ccccc2)c1)c1ccc(OC(F)F)cc1 (stereo partly drawn) [Flucythrinate] | -84±23% | 35.7 ± 20 µM | -57±39% | 31.6 µM | 80% | 43.9 ± 17.4 µM | – | – | –
31 | O=[N+]([O-])c1ccc(O/N=C/c2cc(Br)c(O)c(Br)c2)c([N+](=O)[O-])c1 [Bromofenoxim] | -108±7% | – | -114±9% | 3.98 µM | 100% | 2.18 ± 0.86 µM | 1.08 ± 0.25 µM | – | –
32 | O=P(Oc1ccccc1)(Oc1ccccc1)Oc1ccccc1 [Triphenyl phosphate] | -98±14% | 1.38 ± 1.48 µM | -56±38% | 1.26 µM | 48% | 28.9 ± 9.26 µM | – | – | –
33 | COc1cc(/C=C/C(=O)CC(=O)/C=C/c2ccc(O)c(OC)c2)ccc1O [Curcumin] | -103±16% | – | -116±37% | 2.51 µM | 96% | 11.6 ± 9.87 µM | 1.31 ± 1.03 µM | – | –
34 | Cc1ccccc1C(=O)Nc1cccc(OC(C)C)c1 [Mepronil] | -73±6% | 40.9 ± 19.2 µM | -39±16% | 39.8 µM | 72% | 56.2 µM | – | – | –
